“Also recorded” adds a separate entry of the source.
Tests used:
[1] = Moisture sorption (Dynamic Vapor Water Sorption analyzer); format: physicochemical; conditions: 25° C.; for hygroscopicity compared with Form A: up to about 80% RH
Experimental: Moisture sorption data were collected at 25° C. from 0% to 80% RH using a Surface Measurement Systems Dynamic Vapor Water Sorption analyzer. The equilibrium window was for a dm/dT of 0.0003 or a maximum time of 120 minutes.

[2] = True density by helium pycnometry; format: physicochemical
[3] = Solution calorimetry (heat of solution); format: physicochemical; conditions: LT form / Form A pair
[4] = Thermodynamic parameters from eutectic melting data (ΔG−T and ΔG/T−1/T plots); format: physicochemical; conditions: for Tt (transition temperature): LT form to HT = Form A, calculated as Tt=ΔH/ΔS; for ΔH / ΔS: transition of low temperature form (LT) to HT = Form A, derived from eutectic melting data
Experimental: Based on the Heat of Transition Rule both Forms B and E are believed to be enantiotropically related to Form A, meaning there is a change in the stability relationship between the forms around a transition temperature Tt. Determination of Tt for Forms B and E with respect to Form A was performed by the use of eutectic melting data. Eutectics were formed between a reference compound (RC) and each of Forms A, B and E of parecoxib sodium. Subsequently heat of fusion data were used to derive the free energy difference between the crystal forms at the eutectic temperature (equation I): xej(Gj-Gi)Tei=Δ[…])]} (equation I) wherein xej and xei are the mole fraction of crystal forms j and i respectively in the eutectic; (Gj-Gi) is the free energy difference between crystal forms i and j at Tei; ΔHmej and ΔHmei are the enthalpy of eutectic melting of crystal forms j and i respectively; Tei and Tej are the temperatures of eutectic melting of crystal forms i and j respectively; ΔCpij is the heat capacity change across the eutectic melt; and R is the ideal gas constant. […] By definition, the free energy difference between crystal forms is zero at the transition temperature. The transition temperature given in Table 5 above was calculated according to equation II: Tt=ΔH/ΔS (equation II)

COX-1 = COX-1 (Homo sapiens, UniProt P23219); conditions: background statement; cited from earlier work
Sequence of COX-1 (P23219 24-599): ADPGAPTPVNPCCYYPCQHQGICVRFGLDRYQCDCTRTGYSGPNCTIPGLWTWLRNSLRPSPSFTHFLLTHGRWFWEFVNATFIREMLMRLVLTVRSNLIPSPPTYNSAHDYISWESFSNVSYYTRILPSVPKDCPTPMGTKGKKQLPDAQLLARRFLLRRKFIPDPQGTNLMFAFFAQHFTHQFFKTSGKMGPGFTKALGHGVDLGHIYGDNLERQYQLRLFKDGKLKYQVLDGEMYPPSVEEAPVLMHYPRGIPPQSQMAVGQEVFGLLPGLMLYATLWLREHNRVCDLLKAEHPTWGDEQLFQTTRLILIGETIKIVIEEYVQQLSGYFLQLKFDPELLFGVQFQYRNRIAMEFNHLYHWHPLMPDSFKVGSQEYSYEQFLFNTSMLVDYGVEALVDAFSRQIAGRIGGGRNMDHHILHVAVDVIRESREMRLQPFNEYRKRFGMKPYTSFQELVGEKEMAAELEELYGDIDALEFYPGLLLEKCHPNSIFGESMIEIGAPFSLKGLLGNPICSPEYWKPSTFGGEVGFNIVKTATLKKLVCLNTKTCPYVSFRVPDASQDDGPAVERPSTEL

moisture sorbed ([1]; 0-60% RH range)	true density [2]	hygroscopicity compared with Form A [1]	ΔH from heat of solution data [3]	Tt (transition temperature) [4]	ΔH [4]	ΔS [4]	Compound	behaviour above 60% RH ([1]; above 60% RH)	in vitro inhibitory activity against COX-1 (COX-1)
–	1.46 ± 0.01 g/mL	less hygroscopic than Form A	15.34 kJ/mol	163.3 °C	16.63 kJ/mol	38.1 J/mole/K	CCC(=O)[N-]S(=O)(=O)c1ccc(-c2c(-c3ccccc3)noc2C)cc1.[Na+] [Form B, parecoxib sodium]	–	–
–	1.42 ± 0.01 g/mL	less hygroscopic than Form A	17.94 kJ/mol	163.9 °C	17.15 kJ/mol	39.2 J/mole/K	CCC(=O)[N-]S(=O)(=O)c1ccc(-c2c(-c3ccccc3)noc2C)cc1.[Na+] [Form E, parecoxib sodium]	–	–

Second part, the compound before the results:

Compound	moisture sorbed ([1]; 0-60% RH range)	true density [2]	hygroscopicity compared with Form A [1]	ΔH from heat of solution data [3]	Tt (transition temperature) [4]	ΔH [4]	ΔS [4]	behaviour above 60% RH ([1]; above 60% RH)	in vitro inhibitory activity against COX-1 (COX-1)
CCC(=O)[N-]S(=O)(=O)c1ccc(-c2c(-c3ccccc3)noc2C)cc1.[Na+] [Form A, parecoxib sodium]	less than 1%	1.34 ± 0.01 g/mL	–	–	–	–	–	deliquesced; also recorded: greater tendency to sorb water and even to deliquesce	–
Cc1onc(-c2ccccc2)c1-c1ccc(S(N)(=O)=O)cc1 [valdecoxib]	–	–	–	–	–	–	–	–	weak
CCC(=O)NS(=O)(=O)c1ccc(-c2c(-c3ccccc3)noc2C)cc1 [Parecoxib]	–	–	–	–	–	–	–	–	weak
